We go through four molecules from US20040068005A1, “Pharmaceutical combinations” (priority 2000, published 2004).

Holding throughout (format): in vivo, New Zealand white rabbits
Data set [1] deals with normal conscious rabbits. In words: Hyperinsulinaemic euglycaemic glucose clamping (insulin sensitivity), normal rabbits. Particulars: for Glucose infusion rate: normal rabbit; for M values of hyperinsulinaemic and euglycaemic glucose clamping: normal rabbits. As to the method: (§1) The experiments are carried out with adult, male New Zealand white rabbits, weighing 3.0-3.5 kg, housed as described in Am. J. Physiol 1994, Heart Circ. Physiol, 35: H2033-H2041 and J. Moll Cell.. Cardiol. 1997, 29: 1977-1983.
(§2) To estimate insulin sensitivity and/or insulin resistance, hyperinsulinaemic (100 eU/ml) euglycaemic (5.5 mM/l) glucose clamping was used. The glucose clamping values (M) were established as values of glucose infusion rates expressed in mg/kg/min to maintain blood glucose level at 5.5 mM/l.

Data set [2] deals with hypercholesterolaemic, insulin resistant conscious rabbits. The data set is described as follows: Hyperinsulinaemic euglycaemic glucose clamping (insulin sensitivity), hypercholesterolaemic rabbits. Particulars: for Glucose infusion rate / M values of hyperinsulinaemic and euglycaemic glucose clamping / synergism (increased effectivity) on glycaemic control: hypercholesterolaemic; for Glucose infusion rate: insulin resistant rabbit; for synergism (increased effectivity) on glycaemic control: drug combined with nitroglycerin; for Insulin sensitivity: percent of means, control = 100. As to the method:
(§3) The experiments are carried out with adult, male New Zealand white rabbits, weighing 3.0-3.5 kg, housed as described in Am. […] Physiol, 35: H2033-H2041 and J. Moll Cell.. Cardiol.
as §2

For data set [3], the system named is streptozotocin diabetic rabbits. The data set is described as follows: Femoral nerve conduction velocity, streptozotocin diabetes. Particulars: for Nerve conduction velocity: femoral “C” fibers, streptozotocin diabetic rabbit; for nerve conduction in “C” fibres: streptozotocin-diabetes model, drug alone, nitroglycerin 12-h patch on vs 12-h patch off over three days. As for the experimental part:
as §1
These series of experiments were carried out to verify/exclude sensory neuropathy. Left saphenous nerve conduction velocity was determined as described in Eur J. Pharmacol 1999, 386:83-88.
Streptozotocin (40 mg/kg i.v.) produced a decrease in nerve conduction velocity in femoral “A” and “C” fibres, respectively, as determined 8 weeks after streptozotocin injection. […] The combination of any of these drugs with nitroglycerin yielded an improvement of conduction velocity in streptozotocin-diabetic aminals similar to that seen with nitroglycerin alone.

Data set [4] deals with normal conscious rabbits. In words: Ventricular pacing-induced myocardial ischaemia (ST-segment elevation), normal rabbits. Particulars: for anti-ischaemic effect of combination with nitroglycerin / intracavitary ST-segment elevation: normal conscious rabbits; for anti-ischaemic effect of combination with nitroglycerin: nitroglycerin combined with the drug; for ST-segment elevation: normal rabbit; for intracavitary ST-segment elevation: drug alone. As to the method:
as §3
(§4) The induction of global myocardial ischaemia was based on a method described as above.

Data set [5] relates to hypercholesterolaemic, insulin resistant conscious rabbits. In words: Ventricular pacing-induced myocardial ischaemia (ST-segment elevation), hypercholesterolaemic rabbits. Particulars: for ST-segment elevation / intracavitary ST-segment elevation / ischaemic changes produced by VOP: hypercholesterolaemic; for ST-segment elevation: insulin resistant rabbit; for intracavitary ST-segment elevation / ischaemic changes produced by VOP: insulin resistant rabbits, drug alone. As for the experimental part:
as §3, §4

For data set [6], the system named is hypercholesterolaemic, insulin resistant rabbits. The data set is described as follows: Femoral nerve conduction velocity, hyperlipidaemia-induced insulin resistance. Particulars: femoral “C” fibers, hypercholesterolaemic, insulin resistant rabbit. As to the method: as §3
These series of experiments were carried out to verify/exclude sensory neuropathy.

Where [7] appears, read: placebo patch, troglitazon 70 mg/kg p.os, metformin 5 mg/kg i.v., glibenclamide 1 mg/kg i.v., idazoxan 2 mg/kg i.v., mean.
[8] abbreviates: with active patch (nitroglycerin 0.07 mg/kg/h), alone (Control) or together with the drug, troglitazon 70 mg/kg p.os, metformin 5 mg/kg i.v., glibenclamide 1 mg/kg i.v., idazoxan 2 mg/kg i.v.
The mark [9] stands for this setting: drug alone, troglitazon 70 mg/kg/day p. os over 3 days, metformin 5 mg/kg/day i.v. over 3 days, glibenclamide 1 mg/kg i.v., idazoxan 2 mg/kg i.v.
Where [10] appears, read: placebo patch, troglitazon 70 mg/kg p.os, metformin 5 mg/kg i.v., glibenclamide 1 mg/kg i.v., idazoxan 2 mg/kg i.v.
Setting [11] is: with active patch (nitroglycerin 0.07 mg/kg/h), alone (Control) or together with the drug, same doses.
Setting [12] is: insulin resistant rabbits, in the presence of nitroglycerin and the drug, compared to the placebo patch group.
Where [13] appears, read: placebo patch, troglitazon 70 mg/kg p.os, metformin 5 mg/kg i.v., glibenclamide 1 mg/kg i.v., idazoxan 2 mg/kg i.v., healthy untreated 6.2.
Where [14] appears, read: with active patch (nitroglycerin 0.07 mg/kg/h), alone (Control) or with the drug.
Setting [15] is: metformin 100 mg/kg p.os, ISMN controlled release 5 mg/kg p.os.
The mark [16] stands for this setting: nitroglycerin patch 0.07 mg/kg/h, metformin 5 mg/kg i.v., troglitazon 70 mg/kg p.os.

On to `c1ccc2c(c1)OCC(C1=NCCN1)O2` (centres unmarked) [Idazoxan, idazoxane], for which the Glucose infusion rate was determined as 14.667 mg/kg/min in the data set with normal conscious rabbits [1] (setting [7]), 16.000 mg/kg/min with normal conscious rabbits [1] (setting [8]), 8.500 mg/kg/min in data set [2] (setting [10]) and 12.833 mg/kg/min in data set [2] (setting [11]). Further, the “M values of hyperinsulinaemic and euglycaemic glucose clamping” value (“M values” for short) in the data set with normal conscious rabbits [1] (setting [9]) is recorded as “without effect”; in data set [2] (setting [12]), “significantly increased”. The “synergism (increased effectivity) on glycaemic control” value in data set [2] (insulin resistant rabbits) is “synergism”. Further, the figures for the Nerve conduction velocity in data set [3] (setting [13]) and in data set [3] (setting [14]) were 2.8 ± 0.26 dm/s and 3.4 ± 0.2 dm/s, respectively. In data set [3], the “nerve conduction in “C” fibres” value is listed as “Neither troglitazon,nor glibenclamide, idazoxan or metformin produced any effect”. Besides, the “anti-ischaemic effect of combination with nitroglycerin” value (“anti-ischaemic effect of combination” for short) with normal conscious rabbits [4] was “anti-ischaemic effect similar to that produced by nitroglyc erin alone”. Besides, the ST-segment elevation came to 1.4 ± 0.05 mV with normal conscious rabbits [4] (setting [10]); 0.8 ± 0.09 mV in the data set with normal conscious rabbits [4] (setting [14]); 2.3 ± 0.50 mV in data set [5] (placebo patch, same doses); 1.8 ± 0.16 mV in data set [5] (setting [14]). In addition, in data set [5], the “intracavitary ST-segment elevation / ischaemic changes produced by VOP” value is given as “aggravated ischaemic changes”. Further, the “ventricular extrasystoles on VOP” value in data set [5] (insulin resistant animals, idazoxan 2 mg/kg i.v.) was “VOP induced ventricular extrasystolesin the insulin resistant animals”.

On to `CN(C)C(=N)N=C(N)N` [Metformin, metformine], for which the Glucose infusion rate came out at 15.667 mg/kg/min in the data set with normal conscious rabbits [1] (setting [7]); 19.833 mg/kg/min with normal conscious rabbits [1] (setting [8]); 14.80 ± 0.0800 mg/kg/min in the data set with normal conscious rabbits [1] (setting [15]); 10.833 mg/kg/min in data set [2] (setting [10]); 14.500 mg/kg/min in data set [2] (setting [11]); 11.70 ± 1.0300 mg/kg/min in data set [2] (setting [15]). In addition, the “M values” value in the data set on normal conscious rabbits [1] (drug alone vs control, isosorbide-5-mononitrate 1 mg/kg/day (Olicard 40), metformin 100 mg/kg/day p.os over 3 days) is reported as “without any effect”; in the data set with normal conscious rabbits [1] (setting [9]) it was “without effect”; with normal conscious rabbits [1] (in the presence of transdermal nitroglycerin combined with the drug), “significantly increased”; in the data set with normal conscious rabbits [1] (metformin 100 mg/kg/day p.os in the presence of ISML (ISMN)), “significant increase”; in data set [2] (insulin resistant rabbits vs control, ISMN 5 mg/kg/day (Olicard 40), metformin 100 mg/kg/day p.os over 3 days), “significant increase”; in data set [2] (setting [12]) it was “significantly increased”. Also, the Insulin sensitivity in data set [2] (ISMN controlled release 5 mg/kg p.os, metformin 100 mg/kg p.os) came out at 120.6%; in data set [2] (setting [16]) it was 120.4%. The Nerve conduction velocity in data set [3] (setting [13]) is listed as 3.1 ± 0.2 dm/s; in data set [3] (setting [14]), 3.6 ± 0.2 dm/s. Further, the “nerve conduction in “C” fibres” value in data set [3] is recorded as “Neither troglitazon,nor glibenclamide, idazoxan or metformin produced any effect”. Besides, the “intracavitary ST-segment elevation” value in the data set on normal conscious rabbits [4] was “without effect”. Moreover, the “anti-ischaemic effect of combination” value in the data set on normal conscious rabbits [4] was “anti-ischaemic effect similar to that produced by nitroglyc erin alone”. Further, the ST-segment elevation worked out at 1.4 ± 0.08 mV in the data set on normal conscious rabbits [4] (setting [10]); 0.8 ± 0.10 mV with normal conscious rabbits [4] (setting [14]); 2.1 ± 0.13 mV in data set [5] (placebo patch, same doses); 1.5 ± 0.08 mV in data set [5] (setting [14]). Also, the “intracavitary ST-segment elevation / ischaemic changes produced by VOP” value in data set [5] is “without effect”.

As for `Cc1c(C)c2c(c(C)c1O)CCC(C)(COc1ccc(CC3SC(=O)NC3=O)cc1)O2` (centres unmarked) [Troglitazon, troglitazone], the Glucose infusion rate in the data set on normal conscious rabbits [1] (setting [7]) worked out at 17.167 mg/kg/min; with normal conscious rabbits [1] (setting [8]), 19.333 mg/kg/min; in data set [2] (setting [10]) it was 11.000 mg/kg/min; in data set [2] (setting [11]), 14.667 mg/kg/min. In data set [2] (setting [16]), this molecule yielded an Insulin sensitivity of 122.2%. The Nerve conduction velocity was found to be 3.2 ± 0.3 dm/s in data set [3] (setting [13]); 3.6 ± 0.2 dm/s in data set [3] (setting [14]); 4.6 ± 0.4 dm/s in data set [6] (placebo patch, troglitazon 70 mg/kg p.os); 5.9 ± 0.2 dm/s in data set [6] (with active patch (nitroglycerin 0.07 mg/kg/h), alone (Control) or with troglitazon 70 mg/kg p.os). The ST-segment elevation in the data set with normal conscious rabbits [4] (setting [10]) turned out to be 1.1 ± 0.08 mV; in the data set on normal conscious rabbits [4] (setting [14]), 0.7 ± 0.09 mV; in data set [5] (placebo patch, same doses) it was 1.6 ± 0.12 mV; in data set [5] (setting [14]), 1.08 ± 0.10 mV.

With `COc1ccc(Cl)cc1C(=O)NCCc1ccc(S(=O)(=O)NC(=O)NC2CCCCC2)cc1` [Glibenclamide, glibenclamide], the Glucose infusion rate in the data set on normal conscious rabbits [1] (setting [7]) worked out at 14.667 mg/kg/min; with normal conscious rabbits [1] (setting [8]) it was 16.500 mg/kg/min; in data set [2] (setting [10]) it was 8.833 mg/kg/min; in data set [2] (setting [11]) it was 12.333 mg/kg/min. For the same molecule, the “M values” value in the data set on normal conscious rabbits [1] (setting [9]) was “without effect”; in data set [2] (setting [12]), “significantly increased”. Further, in data set [2] (insulin resistant rabbits), the “synergism (increased effectivity) on glycaemic control” value was “synergism”. Further, the Nerve conduction velocity in data set [3] (setting [13]) is reported as 2.9 ± 0.24 dm/s; in data set [3] (setting [14]), 3.6 ± 0.2 dm/s. Moreover, in data set [3], the “nerve conduction in “C” fibres” value is on record as “Neither troglitazon,nor glibenclamide, idazoxan or metformin produced any effect”. Moreover, the “intracavitary ST-segment elevation” value with normal conscious rabbits [4] is “without effect”. Besides, the “anti-ischaemic effect of combination” value in the data set with normal conscious rabbits [4] is listed as “anti-ischaemic effect similar to that produced by nitroglyc erin alone”. The ST-segment elevation is 1.4 ± 0.08 mV in the data set with normal conscious rabbits [4] (setting [10]); 0.8 ± 0.08 mV with normal conscious rabbits [4] (setting [14]); 1.9 ± 0.40 mV in data set [5] (placebo patch, same doses); 1.5 ± 0.13 mV in data set [5] (setting [14]). Moreover, the “intracavitary ST-segment elevation / ischaemic changes produced by VOP” value in data set [5] is on record as “without effect”.
